Laboratory results reported in patent publication US10945516B2, “Device mounted on mask pack, mask pack and kit comprising the same” (BIOSENSOR LABORATORIES INC., priority 2016, dated 2021).

Assays:
[1] = assay type: in vitro ADME; conditions: pig, 30 min, 0.5 mM
Experimental: In particular, first, frozen pig skin purchased from a slaughterhouse was left out at room temperature and thawed for 2 to 3 hours for preparation. Then, hair on the pig skin was removed, and the pig skin was stretched to have elasticity and fixed on a plate with pins. As an experimental group, the mask pack prepared according to an embodiment was applied to the pig skin for 30 minutes, and as a control group, a mask pack on which a RED battery was not mounted was applied to the pig skin for 30 minutes. 0.5 mM of Calcein (having a molecular weight of 622.55 g/mol, available from Sigma-Aldrich), which is a fluorescent agent, was used in a material-containing portion. Thereafter, the pig skin was prepared as samples and fixed for 24 hours by using a fixing solution of 4% paraformaldehyde (pH 7.4 at 4° C.). After the fixing, the samples were sufficiently washed with a PBS (pH 7.4) solution, and embedded with a Tissue-Tek O.C.T. compound (available from Sakura Finetek, USA) and rapidly cooled. The cooled samples were cut to a size of 7 um by using a cryomicrotome (Shandon Cryotome SME Cryostat, Shandon Scientific LTD, Cheshire, England). The cryomicrotomed tissue was washed with a PBS solution, mounted on a mounting solution, covered with a cover slip, and observed using a fluorescent microscope (Axio Observer Z1; Zeiss, Gottingen, Germany), and the results are shown in FIG. 11.

[2] = Degree of absorption of vitamin C by mouse skin from patch (HPLC); assay type: in vitro ADME; conditions: 12.5 mg per patch, 6 hours, hairless mouse back skin
Experimental: In particular, hairless mouse skin was used to measure a cumulative amount of vitamin C in skin of a mouse. As a control group, a preparation containing vitamin C in a general patch was used. As an experimental group, a preparation containing vitamin C in a patch using reverse electrodialysis was used. A cohesive hydrogel-type patch was prepared by using 3 w/v % Carbopol, and 0.5 mL of a vitamin C-containing cohesive hydrogel was loaded on the patch (an amount of vitamin C was 2.5 w/v %, and an amount of vitamin C loaded per patch was 12.5 mg). Back skin of a 5 week-old mouse (20 to 25 g) was taken, and the patch was mounted thereon. The patch was removed after being incubated for 6 hours, and the skin was carefully separated, quickly washed by using DDW and MeOH, and freeze-stored at −70° C. […] Amounts of vitamin C in the samples were measured by using high-performance liquid chromatography (HPLC) using a mixture of acetonitrile and 0.3 M of KH2PO4 (pH 4) at a ratio of 40:60 as a mobile phase, a Nucleosil NH2 (100 μm) column, a flow rate of 0.8 mL/min, an insertion volume of 20 μL, a UV wavelength of 264 nm, and a column temperature of 25° C., and the results are shown in FIG. 13.

| SMILES | amount of fluorescence that permeated into skin [1] [ng/cm^2] | amount permeated into skin [1] | increase of amount permeated into skin, reverse electrodialysis mask pack compared to passive diffusion [1] | locally remaining amounts of vitamin C of the epidermis layer and the dermis layer ([2]; control group general patch) | increase of locally remaining amounts of vitamin C of the epidermis layer and the dermis layer relative to control group ([2]; reverse electrodialysis patch vs general patch) |
| --- | --- | --- | --- | --- | --- |
| O=C(O)CN(CC(=O)O)Cc1cc2c(cc1O)Oc1cc(O)c(CN(CC(=O)O)CC(=O)O)cc1C21OC(=O)c2ccccc21 [Calcein] | 0.47 | about 0.05 ng/cm^2 | about 7 times |  |  |
| O=C1O[C@H]([C@@H](O)CO)C(O)=C1O [vitamin C] |  |  |  | small | about 3 times |
